Assay results taken from publication PMC8073907, “Peptide targeting of lysophosphatidylinositol-sensing GPR55 for osteoclastogenesis tuning” (Cell Communication and Signaling : CCS, 2021).

Experiments:
[1] = system: GPR55-silenced HeLa cells; test: LPI-induced ERK1/2 and p38 phosphorylation in shGPR55-HeLa clones (Western blot); assay type: cell-based, human
Description: For stable interference of GPR55, HeLa cells were plated at 1.5 × 10^5 cells/well in six-well plates in growth medium without antibiotics, and 24 h later, the cells were transfected with 1.7 µg/well OmicsLink short hairpin (sh)RNA expression clone CSHCTR001-CU6 (shCTRL) or clone HSH022476-3-CU6 (shGPR55) from GeneCopoeia (Rockville, MD, USA), using Lipofectamine 2000, according the manufacturer instructions. Forty-eight hours after transfection, HeLa clones stably expressing shRNAs were selected in growth medium containing 0.3 µg/mL puromycin. The efficiency of interference was monitored by real-time PCR using the primers listed in the Additional file 1: Table S1. HPRT1 was followed as a housekeeping gene.
Twenty-four hours after transfection (HEK293T, HeLa cells or clones) or 72 h after interference (RAW264.7 cells), the cells were washed twice with HBSS^++, serum deprived (HEK293T cells for 4 h in DMEM; HeLa cells and clones for 2 h in MEM plus 2 mM glutamine and 25 mM HEPES; RAW264.7 cells for 2 h in DMEM), washed once again with HBSS^++, incubated in stimulation buffer (HBSS^++ with 10 mM HEPES, 0.4% faf-BSA for HEK293T cells; HBSS^++ with 25 mM HEPES and 0.01% faf-BSA for HeLa cells, clones, and RAW264.7 cells) in the absence or presence of stimuli, at 37 °C for the indicated times. Incubations were terminated by washing the cells twice with cold HBSS^++, and the analyses were performed as reported below.
Cell lysates were obtained by scraping the cells into phospho-lysis buffer: 50 mM Tris–HCl, pH 7.5, 100 mM NaCl, 5 mM EDTA, 1% Triton X-100, 50 mM NaF, 40 mM β-glycerophosphate, 200 µM sodium orthovanadate, plus protease and phosphatase inhibitors (Roche). […]
Protein lysates were subjected to SDS-PAGE, and after electrophoresis, the proteins were transferred to a nitrocellulose membrane (PerkinElmer Life Science, Boston, MA, USA). […] The membranes were then washed twice with T-TBS and once with TBS for 5 min, and the signals were detected by ECL (Amersham Pharmacia, Piscataway, NJ, USA). […]

[2] = system: RAW264.7 cells; test: Filamentous actin (phalloidin) FACS analysis of RAW264.7 cells; assay type: cell-based, murine; settings: 10 µM soybean LPI
Description: For transient interference of Gpr55, RAW264.7 cells were plated at 6 × 10^5 cells/well in six-well plates in growth medium without antibiotics. Twenty-four hours later, the cells were transfected with 250 pmol/well non-targeting small-interfering (si)RNAs (si-NT; siGENOME siRNA Pool #2; D-001206-14; Dharmacon, Chicago, IL, USA) or Gpr55-specific siRNAs (si-GPR55; siGENOME mouse GPR55 SMART pool; M-043590-01; Dharmacon) using Lipofectamine LTX and Plus Reagent, according to the manufacturer instructions. Twenty-four hours later, the cells were plated for the different assays or for RNA extraction. The efficiency of interference was monitored by real-time PCR after 72 h of interference, using the primers listed in the Additional file 1: Table S1. β2-microglobulin was followed as a housekeeping gene.
Twenty-four hours after plating the RAW264.7 cells at a density of 1.2 × 10^6 cells/well in six-well plates, or 2.5 × 10^5 cells/well in 24-well plates on coverslips, the cells were serum deprived for 2 h and then stimulated while adhered, with LPI in the assay buffer (0.1% faf-BSA, 20 mM HEPES in HBSS^++). Stimulation was blocked by two washes with HBSS^++, and cells on coverslips were processed for immunofluorescence (see below), while the cells in the six-well plates were scraped into cytoskeleton buffer (10 mM 4-morpholineethanesulfonic acid, 150 mM NaCl, 5 mM EGTA, 5 mM MgCl2, 5 mM glucose), for FACS analysis. For the latter, an equal volume of fixation solution (1% Triton X-100, 0.5% glutaraldehyde, in cytoskeleton buffer) was added to the cell suspension and left for 2 min at room temperature. […] Finally, the fixed cells were stained with 33 nM Alexa546-labelled phalloidin for 1 h at room temperature, washed three times (10 min each) with cytoskeleton buffer, suspended in PBS with 3% BSA, and analysed by FACS (FACSCalibur or FACSAria III; Becton Dickinson, Franklin Lakes, NJ).

lysophosphatidylinositol [LPI]
LPI response of empty vector (pcDNA3.1) transfected clones ([1]; 10 µM 18:0 LPI): did not respond to LPI addition
ERK1/2 and p38 activation ([1]; 10 µM soybean LPI, or 1 µM ionomycin 5 min): did not show any ERK1/2 and p38 activation
mean phalloidin fluorescence on LPI addition, si-GPR55 ([2]; si-GPR55 cells): did not increase further on LPI addition
mean phalloidin fluorescence, si-NT ([2]; si-NT cells): significant increase in the mean phalloidin fluorescence
maximal increase in phalloidin mean fluorescence ([2]; wild-type RAW264.7, 15 min, sub-populations #1 and #2, at least five independent experiments): 20%
